Measurements published in the NIST ThermoML archive (doi:10.1021/je060271a).
“And” between values parts separate entries of the source, which are not always exact repeats. Equal values may be shown once.

Conditions: Liquid, Vibrating tube method

CCCCC(=O)OCC(COC(=O)CCCC)(COC(=O)CCCC)COC(=O)CCCC [pentaerythritol tetrapentanoate]
Conditions	mass density
343.15 K, 33864 kPa	1002.5 kg/m3
343.15 K, 33916 kPa	1002.5 kg/m3
343.15 K, 33961 kPa	1002.5 kg/m3
343.15 K, 34007 kPa	1002.5 kg/m3
343.15 K, 34062 kPa	1002.6 kg/m3
343.15 K, 34111 kPa	1002.5 kg/m3
343.15 K, 34161 kPa	1002.6 kg/m3
343.15 K, 34218 kPa	1002.7 kg/m3
343.15 K, 34251 kPa	1002.6 kg/m3
343.15 K, 34275 kPa	1002.8 kg/m3
343.15 K, 34304 kPa	1002.7 kg/m3
343.15 K, 34328 kPa	1002.8 kg/m3
343.15 K, 34353 kPa	1002.7 kg/m3
343.15 K, 34384 kPa	1002.7 kg/m3
343.15 K, 34410 kPa	1002.8 kg/m3
343.15 K, 34438 kPa	1002.7 kg/m3
343.15 K, 34472 kPa	1002.8 kg/m3
343.15 K, 34497 kPa	1002.9 kg/m3
343.15 K, 34503 kPa	1002.9 kg/m3
343.15 K, 34504 kPa	1002.8 kg/m3
343.15 K, 34505 kPa	1002.9 kg/m3
343.15 K, 34506 kPa	1002.8 kg/m3
343.15 K, 34508 kPa	1002.8 kg/m3
343.15 K, 34509 kPa	1002.8 kg/m3
343.15 K, 34510 kPa	1002.9 kg/m3 and 1002.8 kg/m3
343.15 K, 34512 kPa	1002.8 kg/m3
343.15 K, 34514 kPa	1002.8 kg/m3
343.16 K, 412.1 kPa	978.6 kg/m3
343.16 K, 441.3 kPa	978.8 kg/m3
343.16 K, 470.3 kPa	978.8 kg/m3
343.16 K, 495.2 kPa	978.9 kg/m3
343.16 K, 522.1 kPa	978.8 kg/m3
343.16 K, 556.2 kPa	979 kg/m3
343.16 K, 586.3 kPa	978.8 kg/m3
343.16 K, 617.4 kPa	979 kg/m3
343.16 K, 654 kPa	979 kg/m3
343.16 K, 685.5 kPa	979 kg/m3
343.16 K, 717.1 kPa	979 kg/m3
343.16 K, 781.4 kPa	979 kg/m3
343.16 K, 807.8 kPa	979.1 kg/m3
343.16 K, 835.6 kPa	979.2 kg/m3
343.16 K, 864.6 kPa	979.2 kg/m3
343.16 K, 901.1 kPa	979.2 kg/m3
343.16 K, 933.9 kPa	979.2 kg/m3
343.16 K, 969.2 kPa	979.2 kg/m3
343.16 K, 1013.1 kPa	979.1 kg/m3
343.16 K, 1049.6 kPa	979.2 kg/m3
343.16 K, 1077.9 kPa	979.4 kg/m3
343.16 K, 1107.4 kPa	979.3 kg/m3
343.16 K, 1133.1 kPa	979.3 kg/m3
343.16 K, 1159.9 kPa	979.4 kg/m3
343.16 K, 1187.6 kPa	979.4 kg/m3
343.16 K, 1223.2 kPa	979.4 kg/m3
343.16 K, 1254.5 kPa	979.4 kg/m3
343.16 K, 1286.1 kPa	979.4 kg/m3
343.16 K, 1325.9 kPa	979.4 kg/m3
343.16 K, 1361.3 kPa	979.5 kg/m3
343.16 K, 1398.1 kPa	979.6 kg/m3
343.16 K, 1437 kPa	979.8 kg/m3
343.16 K, 1485.1 kPa	979.6 kg/m3
343.16 K, 1528.1 kPa	979.7 kg/m3
343.16 K, 1574.3 kPa	979.7 kg/m3
343.16 K, 1633.5 kPa	979.6 kg/m3
343.16 K, 2223.1 kPa	980.2 kg/m3
343.16 K, 2283.6 kPa	980.2 kg/m3
343.16 K, 2321.1 kPa	980.2 kg/m3
343.16 K, 2385.5 kPa	980.4 kg/m3
343.16 K, 2425 kPa	980.4 kg/m3
343.16 K, 2459.5 kPa	980.4 kg/m3
343.16 K, 2536.9 kPa	980.4 kg/m3
343.16 K, 2611.6 kPa	980.6 kg/m3
343.16 K, 2873.3 kPa	980.7 kg/m3
343.16 K, 2917.7 kPa	980.7 kg/m3
343.16 K, 3019.5 kPa	980.9 kg/m3
343.16 K, 3175.8 kPa	980.9 kg/m3
343.16 K, 3224.4 kPa	981.1 kg/m3
343.16 K, 3294.8 kPa	981.1 kg/m3
343.16 K, 3352.1 kPa	981.2 kg/m3
343.16 K, 3426.6 kPa	981.2 kg/m3
343.16 K, 3497.5 kPa	981.3 kg/m3
343.16 K, 3535.3 kPa	981.2 kg/m3
343.16 K, 3629.9 kPa	981.3 kg/m3
343.16 K, 3647.8 kPa	981.5 kg/m3
343.16 K, 3662.8 kPa	981.3 kg/m3
343.16 K, 3677.4 kPa	981.3 kg/m3
343.16 K, 3695.4 kPa	981.4 kg/m3
343.16 K, 3713.8 kPa	981.4 kg/m3
343.16 K, 3733.2 kPa	981.4 kg/m3
343.16 K, 3754.8 kPa	981.5 kg/m3
343.16 K, 3785.2 kPa	981.5 kg/m3
343.16 K, 3811.5 kPa	981.5 kg/m3
343.16 K, 3838.2 kPa	981.6 kg/m3
343.16 K, 3865.5 kPa	981.5 kg/m3
343.16 K, 5098.9 kPa	982.6 kg/m3
343.16 K, 5142.8 kPa	982.5 kg/m3
343.16 K, 5167.8 kPa	982.6 kg/m3
343.16 K, 5186.3 kPa	982.5 kg/m3
343.16 K, 5201 kPa	982.6 kg/m3
343.16 K, 5210.3 kPa	982.5 kg/m3
343.16 K, 5224.5 kPa	982.5 kg/m3
343.16 K, 5255.1 kPa	982.6 kg/m3
343.16 K, 5300.5 kPa	982.6 kg/m3
343.16 K, 5325.2 kPa	982.7 kg/m3
343.16 K, 5345.4 kPa	982.7 kg/m3
343.16 K, 5483.5 kPa	982.9 kg/m3
343.16 K, 5624.6 kPa	983 kg/m3
343.16 K, 5676.1 kPa	983 kg/m3
343.16 K, 5700.4 kPa	982.9 kg/m3
343.16 K, 5724.9 kPa	982.9 kg/m3
343.16 K, 5754 kPa	983 kg/m3
343.16 K, 5779.4 kPa	983.1 kg/m3
343.16 K, 5804.5 kPa	983.1 kg/m3
343.16 K, 5829.4 kPa	982.9 kg/m3
343.16 K, 5859.3 kPa	983 kg/m3
343.16 K, 5884.9 kPa	983.1 kg/m3
343.16 K, 5910.4 kPa	983.1 kg/m3
343.16 K, 5937.2 kPa	983 kg/m3
343.16 K, 5968 kPa	983.3 kg/m3
343.16 K, 5994 kPa	983.1 kg/m3
343.16 K, 6020.7 kPa	983.2 kg/m3
343.16 K, 6053.2 kPa	983.2 kg/m3
343.16 K, 6080.4 kPa	983.2 kg/m3
343.16 K, 6108.6 kPa	983.3 kg/m3
343.16 K, 6137.6 kPa	983.3 kg/m3
343.16 K, 6165.8 kPa	983.2 kg/m3
343.16 K, 6199.5 kPa	983.3 kg/m3
343.16 K, 6228 kPa	983.4 kg/m3
343.16 K, 6262.9 kPa	983.4 kg/m3
343.16 K, 6292.8 kPa	983.4 kg/m3
343.16 K, 6323.1 kPa	983.4 kg/m3
343.16 K, 6352.3 kPa	983.4 kg/m3
343.16 K, 6382.9 kPa	983.5 kg/m3
343.16 K, 6408.4 kPa	983.5 kg/m3
343.16 K, 6433.7 kPa	983.5 kg/m3
343.16 K, 6459.6 kPa	983.5 kg/m3
343.16 K, 6491.2 kPa	983.7 kg/m3
343.16 K, 6518.6 kPa	983.6 kg/m3
343.16 K, 6545.1 kPa	983.6 kg/m3
343.16 K, 6572.4 kPa	983.7 kg/m3
343.16 K, 6599.5 kPa	983.7 kg/m3
343.16 K, 6632.2 kPa	983.7 kg/m3
343.16 K, 6659.3 kPa	983.6 kg/m3
343.16 K, 6686.8 kPa	983.6 kg/m3
343.16 K, 6719.6 kPa	983.7 kg/m3
343.16 K, 6747.4 kPa	983.8 kg/m3
343.16 K, 6804.2 kPa	983.8 kg/m3
343.16 K, 6838.6 kPa	983.8 kg/m3
343.16 K, 6899.2 kPa	983.8 kg/m3
343.16 K, 6929.1 kPa	983.9 kg/m3
343.16 K, 6959.5 kPa	983.9 kg/m3
343.16 K, 6989.5 kPa	984 kg/m3
343.16 K, 7026.2 kPa	983.9 kg/m3
343.16 K, 7056.7 kPa	984 kg/m3
343.16 K, 7088 kPa	984.1 kg/m3
343.16 K, 7120.1 kPa	984.1 kg/m3
343.16 K, 7261.4 kPa	984.1 kg/m3
343.16 K, 7294.7 kPa	984.3 kg/m3
343.16 K, 7328.4 kPa	984.1 kg/m3
343.16 K, 7396.9 kPa	984.2 kg/m3
343.16 K, 7437.8 kPa	984.2 kg/m3
343.16 K, 7472.9 kPa	984.3 kg/m3
